Measurements reported in EP1528931B1, “DIPEPTIDYL PEPTIDASE IV INHIBITORS FOR DECREASING THE RATE OF CHRONIC WEIGHT GAIN” (Prosidion Ltd., priority 2002, dated 2004).
Values joined by “and” are separate entries in the source; they are usually repeats but may differ in a detail not shown here. Equal values may be shown once. Ends that are not written are not given here.

Tests used:
[1] = target: human plasma containing DP IV-activity (Homo sapiens, UniProt P27487); test: Proteolytic processing of peptides in human plasma with or without P32/98, MALDI-TOF; details: human EDTA-plasma with 9.8 µMol/l isoleucyl thiazolidine hemifumarate
human plasma containing DP IV-activity (Homo sapiens, UniProt P27487), sequence (P27487 39-766 limits assumed): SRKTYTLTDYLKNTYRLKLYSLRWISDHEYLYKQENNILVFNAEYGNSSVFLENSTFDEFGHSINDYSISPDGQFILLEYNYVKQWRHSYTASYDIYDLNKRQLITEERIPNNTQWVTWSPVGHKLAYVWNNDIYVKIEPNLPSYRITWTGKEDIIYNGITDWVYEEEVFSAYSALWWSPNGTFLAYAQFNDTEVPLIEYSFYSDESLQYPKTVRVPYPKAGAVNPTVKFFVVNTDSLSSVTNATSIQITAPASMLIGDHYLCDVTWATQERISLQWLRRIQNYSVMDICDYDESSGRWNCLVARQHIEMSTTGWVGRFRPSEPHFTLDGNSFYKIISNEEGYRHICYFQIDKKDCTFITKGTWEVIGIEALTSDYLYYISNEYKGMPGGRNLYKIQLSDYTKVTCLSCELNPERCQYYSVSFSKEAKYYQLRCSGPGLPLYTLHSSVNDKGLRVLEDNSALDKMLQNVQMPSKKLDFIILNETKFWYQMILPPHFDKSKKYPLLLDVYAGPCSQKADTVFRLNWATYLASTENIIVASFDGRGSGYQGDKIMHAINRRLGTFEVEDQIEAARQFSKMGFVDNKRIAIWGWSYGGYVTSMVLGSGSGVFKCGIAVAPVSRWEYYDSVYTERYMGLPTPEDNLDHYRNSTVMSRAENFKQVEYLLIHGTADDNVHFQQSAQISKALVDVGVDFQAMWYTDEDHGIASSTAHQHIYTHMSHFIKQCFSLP
Method: Matrix-assisted laser desorption/ionisation mass spectrometry was carried out using the Hewlett-Packard G2025 LD-TOF System with a linear tune of flight analyzer. […] The spectrometer was calibrated externally. […] Samples of the reaction mixtures were removed at various time intervals and mixed with equal volumes of the matrix solution. By mixing assay sample and matrix, the low pH of the matrix solution stopped the enzymatic reaction. A small volume (< 1 µl) of this mixture was transferred to a probe tip and immediately evaporated in a Hewlett-Packard G2024A Sample Prep Accessory to ensure rapid and homogenous sample crystallization. All spectra were generated using automatic mode by averaging 250 single shots selected by the signal-to-noise ratio.
The DP IV used in this study was purified from porcine kidney. […] In the case of plasma, fresh prepared human EDTA-plasma from healthy subjects was used. […] Capillary zone electrophoresis (CZE) investigations were carried out using a system from Beckman. Peptides and enzymes were incubated in the capillary electrophoresis system at 37°C using a 20 mM phosphate buffer pH7.4. Decrease of substrate was determined by subsequent measurements of the same sample. Separation was carried out using a 0.1 M phosphate buffer pH 2.5, a 50 µm * 30 cm fused silica capillary and 16 kV constant voltage. Peptides were detected at 200 nm. Substrate concentrations were calculated from the height of the peptide peaks, For determination of kinetic constants the degradation velocity from at least 4 substrate concentrations were determined and fitted according the Michaelis-Menten equation using Graphit 4.0.

porcine DP IV = target: T1, porcine DP IV (Sus scrofa, UniProt P22411); test: Kinetic constants of peptide degradation by DP IV, capillary zone electrophoresis (CZE); assay type: biochemical; details: 37°C, phosphate buffer pH7.4, read-out: Cleavage, porcine DP IV, Km
T1 construct: from tissue; host or cells: porcine kidney
T1 sequence (P22411 whole entry): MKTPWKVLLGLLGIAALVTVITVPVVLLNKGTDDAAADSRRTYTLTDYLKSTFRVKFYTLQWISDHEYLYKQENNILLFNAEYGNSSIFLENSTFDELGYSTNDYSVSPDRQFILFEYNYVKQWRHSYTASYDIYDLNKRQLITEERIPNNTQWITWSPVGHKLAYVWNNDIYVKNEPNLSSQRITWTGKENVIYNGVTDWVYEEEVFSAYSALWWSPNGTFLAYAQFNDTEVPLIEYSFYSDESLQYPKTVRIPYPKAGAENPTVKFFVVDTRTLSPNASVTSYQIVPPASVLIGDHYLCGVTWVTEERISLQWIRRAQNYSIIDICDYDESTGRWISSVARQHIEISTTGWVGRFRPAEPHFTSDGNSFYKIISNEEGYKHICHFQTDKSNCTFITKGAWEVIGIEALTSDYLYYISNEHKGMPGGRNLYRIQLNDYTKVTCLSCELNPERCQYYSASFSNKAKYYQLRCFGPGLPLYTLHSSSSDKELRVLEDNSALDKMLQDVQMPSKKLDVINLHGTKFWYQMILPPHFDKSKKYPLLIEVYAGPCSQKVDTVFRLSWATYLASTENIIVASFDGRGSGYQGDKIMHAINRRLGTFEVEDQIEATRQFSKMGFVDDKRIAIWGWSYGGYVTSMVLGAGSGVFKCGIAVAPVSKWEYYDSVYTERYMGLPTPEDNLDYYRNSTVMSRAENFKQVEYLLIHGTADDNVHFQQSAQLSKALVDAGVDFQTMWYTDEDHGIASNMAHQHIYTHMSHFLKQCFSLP
Method: The DP IV used in this study was purified from porcine kidney. The specific activity measured using Gly-Pro-4-nitroanilide as a chromogenic substrate was at least 5 units/mg. […] Capillary zone electrophoresis (CZE) investigations were carried out using a system from Beckman. Peptides and enzymes were incubated in the capillary electrophoresis system at 37°C using a 20 mM phosphate buffer pH7.4. Decrease of substrate was determined by subsequent measurements of the same sample. Separation was carried out using a 0.1 M phosphate buffer pH 2.5, a 50 µm * 30 cm fused silica capillary and 16 kV constant voltage. Peptides were detected at 200 nm. Substrate concentrations were calculated from the height of the peptide peaks, For determination of kinetic constants the degradation velocity from at least 4 substrate concentrations were determined and fitted according the Michaelis-Menten equation using Graphit 4.0.

[2] = system: human plasma containing DP IV-activity; test: Proteolytic processing of peptides in human plasma with or without P32/98, MALDI-TOF; assay type: in vitro ADME; details: inhibitor 9.8 µMol/l
Excerpt: The instrument was equipped with a 337 nm nitrogen laser, a potential acceleration source (5 kV) and a 1.0 m flight tube. […] The spectrometer was calibrated externally.
Peptides were detected at 200 nm.

Male Zucker fa/fa rats [3] = test: Repeated once-daily dosing for 21 days: morning values and day-night profile of blood glucose and plasma insulin; assay type: in vivo, rat
Method: The parameters monitored were morning blood glucose and plasma insulin levels. In a day-night profile, glycemia and insulinaemia were monitored from day 16 to day 17. An OGTT was performed finally on day 21 to monitor blood glucose and plasma insulin kinetics to assess changes in glucose tolerance. Glibenclamide (DAB 1996; R011150/33372) was donated by Berlin-Chemie (Berlin, Germany). Male Zucker (fa/fa) rats of the body Weight class of 300g were purchased from Charles River (Sulzfeld, Germany).
Housing Conditions: Animals were kept single-housed under conventional conditions with controlled temperature (22±2 °C) on a 12/12 hours light/dark cycle (light on at 06:00 a.m.). Standard pellets (ssniff®, Soest, Germany) and tap water acidified with HCl were allowed ad libitum.
Catheterization of Carotid Artery: After one week of adaptation carotid catheters were implanted in the rats under general anesthesia (injection of 0.25 ml/kg i.p. Rompun® [2%], Bayer, Germany) and 0.5 ml/kg i.p. Velonarkon® (Arzneimittelwerk Dresden, Germany). The animals were allowed to recover for one week. The catheter was flushed with heparin-saline (104 IU/ml) three times per week.
Thereafter, the non-diabetic Wistar rats were treated orally once daily with RP (5 mg/kg b.w.) or TP (21.51 mg/kg b.w.) and the diabetic Zucker rats were treated orally once daily with RP (1 mg/kg b.w.) or TP (21.61 mg/kg b.w.) for 21 days at 05.00 p.m. (before regular food intake in the dark phase). The controls were given 1% cellulose solution orally (5 ml/kg). Blood samples were taken every morning at 07.30 a.m. from tail veins for measurement of blood glucose and plasma insulin. The last blood samples of this part of the program were taken at 07.30 a.m. on the 15th day to measure blood glucose and plasma insulin. The oral drug therapy was continued for one week. Recording the day-night profile under the above therapy blood glucose (Δt ≡ 3 h) and plasma insulin (Δt = 3-6 h) wore monitored from day 16 (at b5.40 p.m. beginning) to day 17 (at 02.00 p.m. end).
(§1) Blood glucose: Glucose levels were measured using the glucose oxidase procedure (Super G Glukosemeßgerät; Dr. Müller Gerätebau, Freital, Germany).
(§2) Plasma insulin: Insulin concentrations were assayed by the antibody RIA method (LINCO Research, Inc. St Charles, Mo., USA).

Male Zucker fa/fa rats [4] = test: OGTT on day 21 of repeated dosing; assay type: in vivo, rat
Method: OGTT: A final OGTT was performed on day 21 with blood sampling from the tail vein. Blood samples from the tail vein were taken at-12 h (the night before day 21), at 0 min (immediately before the beginning of OGTT), at 10, 20, 30, 40, 50, 60, 80, 100 and 120 min. Blood samples were taken in 20 µl glass capillaries for blood glucose measurements and in Eppendorf tubes (100 µl). The latter were immediately centrifuged and the plasma fractions were stored at-20°C for insulin analysis.
as §1, §2

Pituitary adenylate cyclase activating polypeptide 27
Cleavage, human plasma +P32/98 [1]: ø

Gastrin releasing peptide (VPLPAGGGTVLTKMYPRGNHWAVGHLM; ends and bridges not checked; UniProt P07492 24-50, looked up) [Gastrin releasing peptide (GRP)]
Cleavage, human plasma +P32/98 [1]: ø

Somatostatin 28
Km (porcine DP IV): 6 µM

Di-[2S,3S]-2-Amino-3-methyl-pentanoic-1,3-thiazolidine fumarate [P32/98]
Hydrolysis of gastrointestinal peptides in human plasma [2]: blocked

Somatostatin 14
Km (porcine DP IV): 42 µM

COc1ccc(Cl)cc1C(=O)NCCc1ccc(S(=O)(=O)NC(=O)NC2CCCCC2)cc1 [glibenclamide]
Day-night profile: mean blood glucose (Male Zucker fa/fa rats [3]; Zucker rats, 02.00 p.m. next day): 7.34 ± 0.77 mmol/L
Day-night profile: plasma insulin (Male Zucker fa/fa rats [3]; Zucker rats, 02.00 p.m. the next day): 58.3 ± 7.3 ng/mL
Day-night profile: plasma insulin (Male Zucker fa/fa rats [3]; Zucker rats, day 16, 05.00 p.m.): 50.0 ± 8.2 ng/mL
Day-night profile: mean blood glucose (Male Zucker fa/fa rats [3]; Zucker rats, day 16, 05.00 p.m., RP 1 mg/kg or TP 21.61 mg/kg orally once daily): 7.96 ± 1.13 mmol/L
Day-night profile: plasma insulin (Male Zucker fa/fa rats [3]; Zucker rats, day 16, 08.00 p.m.): 57.3 ± 8.2 ng/mL
Day-night profile: mean blood glucose (Male Zucker fa/fa rats [3]; Zucker rats, day 16, 11.00 p.m.): 14.80 ± 1.46 mmol/L
Day-night profile: plasma insulin (Male Zucker fa/fa rats [3]; Zucker rats, day 17, 05.00 a.m.): 76.3 ± 8.6 ng/mL
Day-night profile: mean blood glucose (Male Zucker fa/fa rats [3]; Zucker rats, day 17, 11.00 a.m.): 7.66 ± 1.22 mmol/L
Increase of morning blood glucose (Male Zucker fa/fa rats [3]; Zucker rats, within two days of therapy): about 1.5 mmol/l
Increase of insulin output (Male Zucker fa/fa rats [3]; obese Zucker rat, subchronic treatment, total daily insulin secretion): 27%
Glycemia at last drug application before overnight fasting (Male Zucker fa/fa rats [4]; 05.00 p.m., night before day 21): 8.81 ± 1.21 mmol/L
Blood glucose increase after the glucose load (Male Zucker fa/fa rats [4]; OGTT day 21): about 11 mmol/l
glucose area under the curve (G-AUC0-120 min) (Male Zucker fa/fa rats [4]; OGTT day 21): 1096 ± 76 mmol·min/L
Glycemia after overnight fasting (basal, before OGTT) (Male Zucker fa/fa rats [4]; day 21, 07.30 a.m.): 4.91 ± 0.37 mmol/L
OGTT blood glucose (Male Zucker fa/fa rats [4]; day 21, 50 min): 16.33 ± 0.98 mmol/L
OGTT blood glucose (Male Zucker fa/fa rats [4]; day 21, 80 min): 16.24 ± 1.09 mmol/L
OGTT blood glucose (Male Zucker fa/fa rats [4]; day 21, 100 min): 15.13 ± 0.76 mmol/L
OGTT blood glucose (Male Zucker fa/fa rats [4]; day 21, 120 min): 14.81 ± 0.66 mmol/L
Fasting plasma insulin at the beginning of the OGTT (Male Zucker fa/fa rats [4]; day 21, overnight fasting, listed as RP): 11.8±1.5 ng/ml and ~ 12.5 ng/ml

Cholecystokinin [Cholecystokinin (CCK21)]
Cleavage, human plasma +P32/98 [1]: slow unspecific degradation by aminopeptidases and ø

Secretin
Cleavage, human plasma +P32/98 [1]: ø

Peptide histidin methionine [Peptide histidin methionine (PHM)]
Km (porcine DP IV): 35 µM
Cleavage, human plasma +P32/98 [1]: ø
